Values after ≈ are worked out from the molar mass of the structure shown. Where two headings read alike, the source gives them in different places.
Key:
[1] = tested on: Synechococcus sp. PCC 7942; test: Minimum inhibitory concentration of organic acids; format: cell-based; conditions: for MIC: Synechococcus; for Minimum inhibitory concentration: Table 3
Source text: (§1) One aspect of the increased tolerance to organic acids is an increase in the minimal inhibitory concentration (MIC) of a particular organic acid compared to a corresponding microorganism. MIC is the lowest concentration of an agent that will inhibit growth of a microorganism. An MIC can be determined by titrating the agent in the growth medium of the microorganism. The lowest concentration of the agent in which the microorganism is no longer able to grow is the MIC. Methods of culturing microorganisms and of detecting their growth are well known in the art and are not discussed in detail herein.
(§2) Because of this, the toxicity of organic acids generally increases with the hydrophobicity of the compound [35]. The minimum inhibitory concentrations (MIC) for PCC 7002, Synechococcus sp. PCC 7942, and Synechocystis sp. PCC 6803 were determined for acrylic acid, 3HP, and propionic acid at a pH of about 8 (Table 1). […] The low MIC for acrylic acid explains why cultures grown with DMSP become growth inhibited. Cultures with DMSP only show growth inhibition when the accumulating acrylic acid concentration reaches inhibitory concentrations.

[2] = tested on: PCC 7002 acsA:BC glpK::acsA aadA; test: Minimum inhibitory concentration, acsA complementation strain; format: cell-based, Synechococcus sp. PCC 7002; conditions: Synechococcus, read-out: Minimum inhibitory concentration
Method: (§3) Deletion and complementation studies were performed in various Synechococcus spp. and Synechocystis spp. Replacement of the gene acsA in Synechococcus sp. […] An identical level of increase was observed when acsA was replaced with a 20 base-pair barcode sequence. This phenotype was complemented in an acsA deletion strain by expression of acsA under the native promoter in another locus on the chromosome (glpK).

[3] = tested on: Synechococcus sp. PCC 7002; test: Minimum inhibitory concentration of organic acids / growth inhibition; format: cell-based; conditions: for MIC: Synechococcus; for Minimum inhibitory concentration: Table 3
Source text: as §1
(§4) The minimum inhibitory concentrations (MIC) for PCC 7002, Synechococcus sp. PCC 7942, and Synechocystis sp. PCC 6803 were determined for acrylic acid, 3HP, and propionic acid at a pH of about 8 (Table 1).

AcsA = test: Acyl-CoA ligase activity assay; format: biochemical, Synechococcus sp. PCC 7002; conditions: 2 mM organic acid, 500 nM AcsA, CoA consumed in 4 min relative to acetate
Method: Acyl-CoA ligase purification: Escherichia coli BL21 containing plasmid pET28b with acsA were grown in 50 mL of LB to an OD600 nm of 0.6 and induced with 1 mM IPTG. The induced culture was shaken at 37° C. for 3 hrs. The culture was centrifuged and the resulting cell pellet was frozen at −20° C. The cell pellet was processed with Novagen BugBuster Protein Extraction Reagent (Part No. 70584-3). The resulting soluble protein fraction was used for His-tag purification using Ni-NTA agarose beads (Qiagen) and Pierce 0.8-mL centrifugation columns (Part No. 89868). Washes were done with 50 mM NaH2PO4, 300 mM NaCl, and 30 mM imidizole pH 8.0. The his-tagged protein was eluted with 50 mM NaH2PO4, 300 mM NaCl, and 250 mM imidizole pH 8.0. The insoluble fraction from the protein extraction was washed twice with BugBuster reagent followed by incubation with 400 μL 8M urea, 100 mM Tris-HCl, and 100 mM β-mercaptoethanol pH 8.2 for 30 min. The resulting solution was centrifuged at 16,000×g and the supernatant was collected. Protein fractions were run on a SDS-PAGE gel. His-tag purified protein fractions used in the acyl-CoA ligase assay were concentrated and buffered exchanged using an Amicon Ultra-4 centrifugation column. The buffer used for enzyme storage contained 0.1M NaH2PO4, 1 mM EDTA, and 10% v/v glycerol.
Acyl-CoA ligase activity assay: Acyl-CoA ligase activity was determined by measuring the loss of free Coenzyme A (CoA) over time using Ellman's reagent. (Riddles P W, Blakeley R L, & Zerner B (1979) Ellman's reagent: 5,5′-dithiobis(2-nitrobenzoic acid)—a reexamination. Analytical Biochemistry 94(1):75-81.) The enzyme reaction contained 10 mM ATP, 8 mM MgCl2, 3 mM CoA, 0.1 M NaH2PO4, 1 mM EDTA, and 2 mM of the organic acid species. The concentration of AcsA in the reaction was 500 nM. Relative activity was determined by the amount of CoA consumed in 4 min relative to an acetate control.

[4] = tested on: Synechocystis sp. PCC 6803; test: Minimum inhibitory concentration of organic acids; format: cell-based; conditions: for MIC: Synechocystis; for Minimum inhibitory concentration: Table 3
Source text: as §1, §2
(§5) Homologous genes were identified in the cyanobacteria Synechocystis sp. PCC 6803 (s110542; SEQ ID NOS:3 and 4) and Synechococcus sp. PCC 7942 (SYNPCC7942—1342; SEQ ID NOS:5 and 6). […] When selecting for growth of Synechocystis sp. PCC 6803 on 50 μM acrylic acid, the mutation frequency was 2×10^−6.

PCC 6803 sll0542::KmR = test: Minimum inhibitory concentration, deletion strain; format: cell-based, Synechocystis sp. PCC 6803; conditions: Synechocystis; Table 3
Method: as §3, §5

PCC 7002 acsA::aadA = test: microbe, parasite or virus in culture; format: cell-based, Synechococcus sp. PCC 7002; conditions: for Increase in MIC on functional deletion of the acsA gene product: Synechococcus sp. PCC 7002, pH of about 8
Method: This hypothesis was tested by creating a knockout mutant of the acsA gene. This knockout was created by transforming wild type PCC 7002 with a DNA construct that would replace the acsA gene with an antibiotic resistance marker through homologous recombination. The resulting mutant, ΔacsA, was challenged with concentrations of acrylic acid, 3HP, and propionic acid above WT PCC 7002 MIC levels.
Deletion and complementation studies were performed in various Synechococcus spp. and Synechocystis spp. Replacement of the gene acsA in Synechococcus sp.

PCC 7002 A^+ = test: Minimum inhibitory concentration, spontaneous acrylic acid-tolerant mutant; format: cell-based, Synechococcus sp. PCC 7002
Method: as §4

[5] = cited from earlier work
PCC 7002 acsA::BC = test: Minimum inhibitory concentration, acsA barcode replacement strain; format: cell-based, Synechococcus sp. PCC 7002; conditions: Synechococcus, read-out: Minimum inhibitory concentration
Method: as §3

[6] = tested on: PCC 7002 acsA::BC glpK::acsAW49L aadA; test: Minimum inhibitory concentration, acsAW49L complementation strain; format: cell-based, Synechococcus sp. PCC 7002; conditions: Synechococcus, read-out: Minimum inhibitory concentration
Method: as §3

[7] = SP.PCC7942, read-out: Minimum inhibitory concentration
[8] = SP.PCC7002, read-out: Minimum inhibitory concentration
[9] = SP.PCC6803, read-out: Minimum inhibitory concentration

**Q.** Which results are given for `O=C(O)CCO` [3HP, 3-hydroxypropionic acid]?
**A.** MIC [1, 7]: 2000 µM (≈ 180 µg/mL); Minimum inhibitory concentration [1]: 2000 µM (≈ 180 µg/mL); MIC [2]: 15000 µM (≈ 1350 µg/mL); MIC [3, 8]: 10000 µM (≈ 901 µg/mL); Minimum inhibitory concentration [3]: 10000 µM (≈ 901 µg/mL); Acyl-CoA ligase activity of AcsA towards substrate (AcsA): has an activity; MIC [4, 9]: > 35000 µM; MIC (PCC 6803 sll0542::KmR): < 50000 µM; Increase in MIC on functional deletion of the acsA gene product (PCC 7002 acsA::aadA): ≥ 26 fold; Concentration at which the ΔacsA mutant was able to grow without inhibition (PCC 7002 acsA::aadA; ΔacsA mutant): > 500 mM

**Q.** Which results are given for `C=CC(=O)O` [acrylic acid]?
**A.** Increase in tolerance over WT PCC 7002 MIC values (PCC 7002 A^+; PCC 7002 A^+ vs WT): about 280 fold; MIC (PCC 7002 A^+; Synechococcus, Table 1, strain isolated from agar plate containing 5 mM acrylic acid): 7000 µM (≈ 504 µg/mL); MIC [1, 7]: 3 µM (≈ 0.216 µg/mL); Minimum inhibitory concentration [1]: 3 µM (≈ 0.216 µg/mL); MIC [2]: 15 µM (≈ 1.08 µg/mL); pKa [5]: 4.35; MIC (PCC 7002 acsA::BC): 70000 µM (≈ 5040 µg/mL); MIC [3, 8]: 25 µM (≈ 1.8 µg/mL); Minimum inhibitory concentration [3]: 25 µM (≈ 1.8 µg/mL); Inhibitory concentration ([3]; growth by OD730): less than 5 mM; pH dependence of toxicity ([3]; toxicity increasing with decreasing pH): pH dependent; Acyl-CoA ligase activity of AcsA towards substrate (AcsA): has an activity; MIC [4, 9]: 50 µM (≈ 3.6 µg/mL); Minimum inhibitory concentration [4]: 50 µM (≈ 3.6 µg/mL); MIC (PCC 6803 sll0542::KmR): 70000 µM (≈ 5040 µg/mL); MIC [6]: 7000 µM (≈ 504 µg/mL); Increase in MIC on functional deletion of the acsA gene product (PCC 7002 acsA::aadA): ≥ 2.800 fold; MIC (PCC 7002 acsA::aadA; Synechococcus, read-out: Minimum inhibitory concentration): 70000 µM

**Q.** For `CC(=O)O` [acetate, reference compound], which “Acyl-CoA ligase activity of AcsA towards substrate” value (AcsA) is on record?
**A.** has an activity

**Q.** With `CCC(=O)O` [propionic acid] as the compound, how does the MIC ([1]; SP.PCC7942, Table 1, pH of about 8, no increase in OD730, read-out: Minimum inhibitory concentration) read?
**A.** 250 µM (≈ 18.5 µg/mL)

**Q.** And the Minimum inhibitory concentration [1]?
**A.** 250 µM (≈ 18.5 µg/mL)

**Q.** And the MIC ([3]; SP.PCC7002, Table 1, pH of about 8, no increase in OD730, read-out: Minimum inhibitory concentration)?
**A.** 4000 µM (≈ 296 µg/mL)

**Q.** And the Minimum inhibitory concentration [3]?
**A.** 4000 µM (≈ 296 µg/mL)

**Q.** What about the “Acyl-CoA ligase activity of AcsA towards substrate” value (AcsA) of the same compound?
**A.** has an activity

**Q.** And the MIC ([4]; SP.PCC6803, Table 1, pH of about 8, no increase in OD730, read-out: Minimum inhibitory concentration)?
**A.** 250 µM (≈ 18.5 µg/mL)

**Q.** What about the Minimum inhibitory concentration [4] of the same compound?
**A.** 250 µM (≈ 18.5 µg/mL)

**Q.** And the “Increase in MIC on functional deletion of the acsA gene product” value (PCC 7002 acsA::aadA)?
**A.** ≥ 100 fold
